From paper PMC12362783 (Advanced Science, 2025)

Assays:
MDA‐MB‐231 = test: Cell growth inhibition, CellTiter‐Glo (CTG); type: cell-based; conditions: Homo sapiens, MDA-MB-231, 120 h, read-out: IC50 MDA‐MB‐231; CTG, 5 days, n = 3
Protocol: (§1) All cells were grown in a humidified incubator at 37 °C and 5% CO2.
(§2) […] […] Relative viability was calculated by normalizing the raw luminescence counts of the treated groups to those of the DMSO control groups. IC₅₀ values were calculated using sigmoidal dose‐response curve fitting with GraphPad Prism 9.0 software.

MDA‐MB‐468 = test: Cell growth inhibition, CellTiter‐Glo (CTG); type: cell-based; conditions: Homo sapiens, MDA-MB-468, 120 h; CTG, 5 days, n = 3
Protocol: as §1, §2

PARP1 = PARP1 (Homo sapiens, UniProt P09874); test: PARP enzymatic inhibition ELISA (PARP1); type: biochemical; conditions: for IC50: n = 3, mean ± SD
Protocol: The PARP activity assay was performed by ChemPartner (Shanghai, China). Each well was precoated with histone (final conc.: 100 ng mL^−1) diluted in PBS buffer (contains 10 mmol L^−1 NaH2PO4 and 150 mmol L^−1 NaCl, pH 7.4) by incubation at 4 °C overnight. […] The reaction was initiated by the addition of 10 µL of PARP (final conc.: 0.007 nM/well) at room temperature for 60 min. Add 20 µL of anti‐Poly/Mono‐ADP Ribose Rabbit mAb. Incubate for 1.5 h at room temperature and wash the plate three times using PBST buffer. […] Incubate for 1 h at room temperature and wash the plate three times using PBST buffer. Add 25 µL Femto‐ECL Substrate A and Femto‐ECL Substrate B (1:1) mix. Immediately read chemiluminescence on Envision (Revvity, USA).

ATR = molecular target: T1, ATR (Homo sapiens, UniProt Q13535); test: ATR kinase inhibition, Mobility Shift Assay; type: biochemical; conditions: for IC50: n = 3, mean ± SD
T1 construct: purchased Eurofins 14-953
Protocol: The in vitro ATR kinase inhibitory activities were determined by ChemPartner Co., Ltd. (Shanghai, China) using the Mobility Shift Assay. The tested compound was dissolved with DMSO and diluted to 1000/3 × of the final desired highest inhibitor concentration in the reaction. […] The assay wells were incubated at 28 °C for 4 h.

MDA‐MB‐436 = test: Cell growth inhibition, CellTiter‐Glo (CTG); type: cell-based; conditions: for IC50: CTG, 5 days, n = 3; for inhibition at 5 µM: MDA-MB-436, read-out: MDA‐MB‐436 inhibitory rate at certain concentration
Protocol: as §1
(§3) Growth viability was determined by the CellTiter‐Glo luminescent viability assay (Promega) 5 days after drug treatment. Cell viability was measured immediately after dosing (Day 0) and after 5 days of incubation using CellTiter‐Glo (CTG, Promega, G7573). Relative viability was calculated by normalizing the raw luminescence counts of the treated groups to those of the DMSO control groups. IC₅₀ values were calculated using sigmoidal dose‐response curve fitting with GraphPad Prism 9.0 software.

[1] = system: TNBC cells (MDA‐MB‐231, MDA‐MB‐468, MDA‐MB‐436); test: Anti‐proliferative activity across three TNBC cell lines (summary); type: cell-based
Protocol: as §3, with “Cells were grown at 37 °C, under 95% air and 5% CO₂ until they reached about 70% confluence and were subcultured at least twice before the experiment. Cells were seeded at a density of 1000 cells/well in two 384‐well white plates, and the plates were placed in a 5% CO₂ incubator overnight. Growth” for “Growth”

MCF‐7 = test: Cell growth inhibition, CellTiter‐Glo (CTG); type: cell-based; conditions: Homo sapiens, MCF7; n = 3
Protocol: as §3

MDA‐MB‐453 = test: Cell growth inhibition, CellTiter‐Glo (CTG); type: cell-based; conditions: Homo sapiens, MDA-MB-453; n = 3; read-out: IC50 MAD‐MB‐453
Protocol: as §3

MDA‐MB‐468 cells = test: Cell cycle assay, flow cytometry (PI); type: cell-based; conditions: MDA‐MB‐468, 48 h; A7, B8 0.5 and 1.0 µM, controls 1.0 µM
Protocol: The cell cycle analysis was performed with cells seeded in 6‐well plates in growth media. The cells were allowed to attach overnight (8 h). The cultures were treated with different tested drugs for 48 h. After treatment, cells were collected and fixed with 70% pre‐cold ethanol in PBS and stored at −20 °C overnight. Then washed the cells with PBS twice, and incubated with 100 µg mL^−1 RNase A at 37 °C for 1 h, stained with propidium iodide for 30 min avoid light at room temperature. The stained cells were analyzed by flow cytometry. The percentages of cells in the G1, S, and G2/M phases were determined. The data were analyzed by FlowJo software (Tree Star, Inc., Ashland, OR).

MCF‐10A = test: Cell growth inhibition, normal breast cell line; type: cell-based; conditions: Homo sapiens, MCF-10A; @30 µM; read-out: MCF‐10A inhibitory rate at certain concentration
Protocol: as §3

[2] = Homo sapiens, MDA-MB-436, 120 h

T1 sequence (Q13535 whole entry): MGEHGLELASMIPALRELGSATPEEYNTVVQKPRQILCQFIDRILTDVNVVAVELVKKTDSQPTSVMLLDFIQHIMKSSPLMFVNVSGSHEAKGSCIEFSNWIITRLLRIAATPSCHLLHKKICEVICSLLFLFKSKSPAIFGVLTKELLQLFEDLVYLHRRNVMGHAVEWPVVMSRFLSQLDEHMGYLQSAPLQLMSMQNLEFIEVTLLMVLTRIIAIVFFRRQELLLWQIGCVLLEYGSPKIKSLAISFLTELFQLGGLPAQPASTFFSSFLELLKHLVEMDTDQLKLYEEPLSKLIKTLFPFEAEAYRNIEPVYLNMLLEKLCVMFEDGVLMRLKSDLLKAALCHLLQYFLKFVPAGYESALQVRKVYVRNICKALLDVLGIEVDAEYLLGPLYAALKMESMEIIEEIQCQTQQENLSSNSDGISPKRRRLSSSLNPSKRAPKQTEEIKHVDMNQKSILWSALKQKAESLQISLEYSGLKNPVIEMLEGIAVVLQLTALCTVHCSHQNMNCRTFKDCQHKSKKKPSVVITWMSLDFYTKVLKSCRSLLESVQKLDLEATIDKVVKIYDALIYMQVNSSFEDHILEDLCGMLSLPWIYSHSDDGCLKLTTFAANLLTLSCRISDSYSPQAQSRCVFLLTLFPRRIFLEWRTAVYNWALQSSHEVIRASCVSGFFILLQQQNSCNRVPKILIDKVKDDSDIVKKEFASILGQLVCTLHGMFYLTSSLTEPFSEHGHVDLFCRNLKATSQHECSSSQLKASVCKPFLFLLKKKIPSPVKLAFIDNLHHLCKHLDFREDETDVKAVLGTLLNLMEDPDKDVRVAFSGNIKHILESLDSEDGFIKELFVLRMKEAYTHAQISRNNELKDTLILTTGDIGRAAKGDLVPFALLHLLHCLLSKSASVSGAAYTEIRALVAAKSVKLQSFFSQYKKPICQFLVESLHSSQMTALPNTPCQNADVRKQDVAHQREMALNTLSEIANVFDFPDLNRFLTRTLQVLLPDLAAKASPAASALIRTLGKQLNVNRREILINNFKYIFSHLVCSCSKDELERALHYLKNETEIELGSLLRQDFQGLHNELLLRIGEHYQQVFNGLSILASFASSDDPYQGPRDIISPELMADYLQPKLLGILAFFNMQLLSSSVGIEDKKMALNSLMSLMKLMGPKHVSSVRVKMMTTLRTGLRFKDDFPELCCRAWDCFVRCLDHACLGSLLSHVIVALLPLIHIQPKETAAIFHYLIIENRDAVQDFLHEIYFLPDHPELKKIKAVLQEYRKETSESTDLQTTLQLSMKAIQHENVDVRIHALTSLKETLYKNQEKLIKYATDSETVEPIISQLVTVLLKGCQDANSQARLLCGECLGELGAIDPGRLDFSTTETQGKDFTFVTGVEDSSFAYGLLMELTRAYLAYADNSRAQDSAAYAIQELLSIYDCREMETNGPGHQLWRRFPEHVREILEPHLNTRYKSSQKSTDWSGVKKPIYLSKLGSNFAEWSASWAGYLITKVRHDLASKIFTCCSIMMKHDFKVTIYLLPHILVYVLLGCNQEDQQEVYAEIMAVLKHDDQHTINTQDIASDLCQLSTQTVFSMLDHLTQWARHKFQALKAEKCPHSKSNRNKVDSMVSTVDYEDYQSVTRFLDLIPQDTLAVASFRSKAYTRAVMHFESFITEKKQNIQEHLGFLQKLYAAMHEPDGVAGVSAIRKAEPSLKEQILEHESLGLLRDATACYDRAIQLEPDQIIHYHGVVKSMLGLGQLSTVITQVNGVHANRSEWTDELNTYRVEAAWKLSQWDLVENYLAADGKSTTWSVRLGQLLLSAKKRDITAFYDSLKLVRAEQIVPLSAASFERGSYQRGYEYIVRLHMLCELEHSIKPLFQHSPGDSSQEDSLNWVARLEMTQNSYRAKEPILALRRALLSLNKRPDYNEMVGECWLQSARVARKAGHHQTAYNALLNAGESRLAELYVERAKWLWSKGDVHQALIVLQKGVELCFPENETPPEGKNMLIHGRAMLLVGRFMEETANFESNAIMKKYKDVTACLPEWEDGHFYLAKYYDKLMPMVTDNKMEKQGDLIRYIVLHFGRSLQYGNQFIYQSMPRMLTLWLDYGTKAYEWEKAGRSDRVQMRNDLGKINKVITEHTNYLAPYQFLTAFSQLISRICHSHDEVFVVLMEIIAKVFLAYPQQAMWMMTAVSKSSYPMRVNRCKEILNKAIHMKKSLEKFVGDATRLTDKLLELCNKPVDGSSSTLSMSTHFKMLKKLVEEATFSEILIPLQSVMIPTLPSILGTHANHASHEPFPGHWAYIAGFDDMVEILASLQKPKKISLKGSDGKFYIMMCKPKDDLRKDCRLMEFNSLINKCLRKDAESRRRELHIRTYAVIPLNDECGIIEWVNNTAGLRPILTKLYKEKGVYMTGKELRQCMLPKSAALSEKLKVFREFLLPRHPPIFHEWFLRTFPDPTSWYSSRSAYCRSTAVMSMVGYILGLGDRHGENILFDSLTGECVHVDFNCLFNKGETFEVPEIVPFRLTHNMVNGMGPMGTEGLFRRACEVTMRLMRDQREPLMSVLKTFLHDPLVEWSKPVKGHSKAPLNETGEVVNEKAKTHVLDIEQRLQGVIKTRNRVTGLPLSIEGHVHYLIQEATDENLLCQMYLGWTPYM
T1 sequence (Q8WXE1 whole entry partner): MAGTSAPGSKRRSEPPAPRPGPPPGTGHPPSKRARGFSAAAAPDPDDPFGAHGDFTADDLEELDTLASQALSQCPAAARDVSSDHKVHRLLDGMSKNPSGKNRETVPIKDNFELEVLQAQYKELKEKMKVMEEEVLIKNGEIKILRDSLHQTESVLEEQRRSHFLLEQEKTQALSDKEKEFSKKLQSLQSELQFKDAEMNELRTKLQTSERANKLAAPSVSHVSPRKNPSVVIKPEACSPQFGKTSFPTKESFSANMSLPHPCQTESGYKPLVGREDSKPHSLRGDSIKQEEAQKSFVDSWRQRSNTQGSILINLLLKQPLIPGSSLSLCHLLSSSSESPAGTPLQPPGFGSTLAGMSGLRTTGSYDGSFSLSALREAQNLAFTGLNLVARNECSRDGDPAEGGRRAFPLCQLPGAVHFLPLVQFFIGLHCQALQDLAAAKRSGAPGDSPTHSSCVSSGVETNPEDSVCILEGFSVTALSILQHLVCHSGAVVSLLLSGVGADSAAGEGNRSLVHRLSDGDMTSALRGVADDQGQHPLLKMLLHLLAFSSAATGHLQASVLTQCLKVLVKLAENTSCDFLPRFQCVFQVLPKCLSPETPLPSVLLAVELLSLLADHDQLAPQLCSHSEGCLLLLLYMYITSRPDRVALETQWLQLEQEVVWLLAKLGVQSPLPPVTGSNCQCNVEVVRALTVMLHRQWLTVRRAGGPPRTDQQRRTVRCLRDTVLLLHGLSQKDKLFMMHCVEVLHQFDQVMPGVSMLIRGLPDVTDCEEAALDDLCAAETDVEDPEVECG
Sequence of PARP1 (P09874 whole entry): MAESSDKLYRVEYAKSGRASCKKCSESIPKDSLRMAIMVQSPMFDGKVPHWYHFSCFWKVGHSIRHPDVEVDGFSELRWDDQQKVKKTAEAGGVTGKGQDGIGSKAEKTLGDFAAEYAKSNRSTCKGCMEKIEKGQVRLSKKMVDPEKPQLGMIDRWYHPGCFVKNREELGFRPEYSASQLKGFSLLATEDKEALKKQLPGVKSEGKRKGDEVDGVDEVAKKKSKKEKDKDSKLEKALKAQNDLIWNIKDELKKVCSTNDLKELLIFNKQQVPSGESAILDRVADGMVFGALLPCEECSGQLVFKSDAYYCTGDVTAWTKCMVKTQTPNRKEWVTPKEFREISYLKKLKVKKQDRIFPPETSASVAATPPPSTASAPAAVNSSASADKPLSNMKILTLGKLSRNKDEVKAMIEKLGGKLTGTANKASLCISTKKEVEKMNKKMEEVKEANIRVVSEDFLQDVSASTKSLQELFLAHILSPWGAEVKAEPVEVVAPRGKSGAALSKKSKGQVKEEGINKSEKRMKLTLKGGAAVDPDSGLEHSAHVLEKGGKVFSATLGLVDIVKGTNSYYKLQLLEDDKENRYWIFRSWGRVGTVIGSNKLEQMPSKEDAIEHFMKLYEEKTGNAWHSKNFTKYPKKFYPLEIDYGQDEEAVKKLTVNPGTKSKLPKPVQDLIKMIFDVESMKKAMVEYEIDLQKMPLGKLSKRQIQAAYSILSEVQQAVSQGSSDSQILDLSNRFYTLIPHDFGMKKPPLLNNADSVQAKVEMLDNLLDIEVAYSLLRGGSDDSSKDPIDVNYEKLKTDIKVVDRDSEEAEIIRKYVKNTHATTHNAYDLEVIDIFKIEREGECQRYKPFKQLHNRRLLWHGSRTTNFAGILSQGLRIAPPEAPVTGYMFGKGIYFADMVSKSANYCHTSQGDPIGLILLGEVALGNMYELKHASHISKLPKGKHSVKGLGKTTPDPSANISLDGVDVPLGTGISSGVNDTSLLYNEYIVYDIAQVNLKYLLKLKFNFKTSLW

Row | SMILES | IC50 (PARP1) [nM] | IC50 (ATR) [nM] | activity against PARP1 (SAR summary in words, Figure 7) (PARP1) | activity against ATR (SAR summary in words, Figure 7) (ATR) | IC50 (MDA‐MB‐231) [nM] | IC50 (MDA‐MB‐468) [nM] | IC50 (MDA‐MB‐436; [2]) [nM] | activity against TNBC cells (SAR summary in words, Figure 7) [1] | inhibition at 5 µM (MDA‐MB‐436; Homo sapiens) [%] | IC50 (MCF‐7) [nM] | IC50 (MDA‐MB‐453) [nM] | IC50 (MDA‐MB‐436) [nM] | effect on cell cycle distribution (MDA‐MB‐468 cells) | inhibition at 30 µM (MCF‐10A) [%]
1 | C[C@@H]1COCCN1c1cc(C2(NC(=O)N3CCN(C(=O)c4cc(Cc5n[nH]c(=O)c6ccccc56)ccc4F)CC3)CC2)nc(-c2ccnc3[nH]ccc23)n1 [Compound A6, (R)‐4‐(2‐fluoro‐5‐((4‐oxo‐3,4‐dihydrophthalazin‐1‐yl)methyl)benzoyl)‐N‐(1‐(6‐(3‐methylmorpholino)‐2‐(1H‐pyrrolo[2,3‐b]pyridin‐4‐yl)pyrimidin‐4‐yl)cyclopropyll)piperazine‐1‐carboxamide] | 0.98 ± 0.88 | > 500 |  |  | 4160 ± 1090 | 1150 ± 10 | 590 ± 10 |  |  |  |  |  |  | 
2 | C[C@@H]1COCCN1c1cc(C2(NC(=O)C3CCN(C(=O)c4cc(Cc5n[nH]c(=O)c6ccccc56)ccc4F)CC3)CC2)nc(-c2ccnc3[nH]ccc23)n1 [Compound A5, (R)‐1‐(2‐fluoro‐5‐((4‐oxo‐3,4‐dihydrophthalazin‐1‐yl)methyl)benzoyl)‐N‐(1‐(6‐(3‐methylmorpholino)‐2‐(1H‐pyrrolo[2,3‐b]pyridin‐4‐yl)pyrimidin‐4‐yl)cyclopropyll)piperidine‐4‐carboxamide] | 1.08 ± 0.74 | 143 ± 11 |  |  | 3630 ± 1410 | 570 ± 80 | 570 ± 40 |  |  |  |  |  |  | 
3 | C[C@@H]1COCCN1c1cc(C2([S@](C)(=N)=O)CC2)nc(-c2cc[nH]c3nccc2-3)n1 [8 (AZD6738), Ceralasertib, reference compound] |  |  |  |  |  | 18600 ± 1750 | 3800 |  |  | 2010 ± 430 | 1460 ± 170 | 3840 ± 520 | did not significantly change the cell cycle distribution | 25.9
4 | C[C@@H]1COCCN1c1cc(C2(NC(=O)c3cc(Cc4n[nH]c(=O)c5ccccc45)ccc3F)CC2)nc(-c2ccnc3[nH]ccc23)n1 [Compound A1, (R)‐2‐fluoro‐N‐(1‐(6‐(3‐methylmorpholino)‐2‐(1H‐pyrrolo[2,3‐b]pyridin‐4‐yl)pyrimidin‐4‐yl)cyclopropyl)‐5‐((4‐oxo‐3,4‐dihydrophthalazin‐1‐yl)methyl)benzamide] | 1150 ± 43 | 215 ± 22 | moderate activity | moderate activity | 5260 ± 1140 | 8540 ± 1070 | 2920 ± 2050 | weak activity |  |  |  |  |  | 

More lines, main results first:

Row | IC50 (PARP1) [nM] | IC50 (ATR) [nM] | activity against PARP1 (SAR summary in words, Figure 7) (PARP1) | activity against ATR (SAR summary in words, Figure 7) (ATR) | SMILES | IC50 (MDA‐MB‐231) [nM] | IC50 (MDA‐MB‐468) [nM] | IC50 (MDA‐MB‐436; [2]) [nM] | activity against TNBC cells (SAR summary in words, Figure 7) [1] | inhibition at 5 µM (MDA‐MB‐436; Homo sapiens) [%] | IC50 (MCF‐7) [nM] | IC50 (MDA‐MB‐453) [nM] | IC50 (MDA‐MB‐436) [nM] | effect on cell cycle distribution (MDA‐MB‐468 cells) | inhibition at 30 µM (MCF‐10A) [%]
5 | 420 ± 31 | 39.5 ± 3.7 | moderate activity | moderate activity | C[C@@H]1COCCN1c1cc(CNC(=O)c2cc(Cc3n[nH]c(=O)c4ccccc34)ccc2F)nc(-c2ccnc3[nH]ccc23)n1 [Compound B1, (R)‐2‐fluoro‐N‐((6‐(3‐methylmorpholino)‐2‐(1H‐pyrrolo[2,3‐b]pyridin‐4‐yl)pyrimidin‐4‐yl)methyl)‐5‐((4‐oxo‐3,4‐dihydrophthalazin‐1‐yl)methyl)benzamide] | 3050 ± 760 | 7880 ± 1140 | 910 ± 50 | weak activity |  |  |  |  |  | 
6 | 9.5 ± 1.8 | 347 ± 15.7 |  |  | C[C@@H]1COCCN1c1cc(CNC(=O)CCNC(=O)c2cc(Cc3n[nH]c(=O)c4ccccc34)ccc2F)nc(-c2ccnc3[nH]ccc23)n1 [Compound B3, (R)‐2‐fluoro‐N‐(3‐(((6‐(3‐methylmorpholino)‐2‐(1H‐pyrrolo[2,3‐b]pyridin‐4‐yl)pyrimidin‐4‐yl)methyl)amino)‐3‐oxopropyl)‐5‐((4‐oxo‐3,4‐dihydrophthalazin‐1‐yl)methyl)benzamide] | 14300 ± 1400 | 17700 ± 530 |  |  | 34.9 |  |  |  |  | 
7 | 6.2 ± 0.9 | 111 ± 8.1 |  |  | C[C@@H]1COCCN1c1cc(CNC(=O)CCCNC(=O)c2cc(Cc3n[nH]c(=O)c4ccccc34)ccc2F)nc(-c2ccnc3[nH]ccc23)n1 [Compound B4, (R)‐2‐fluoro‐N‐(4‐(((6‐(3‐methylmorpholino)‐2‐(1H‐pyrrolo[2,3‐b]pyridin‐4‐yl)pyrimidin‐4‐yl)methyl)amino)‐4‐oxobutyl)‐5‐((4‐oxo‐3,4‐dihydrophthalazin‐1‐yl)methyl)benzamide] | 14300 ± 3910 | 6830 ± 100 |  |  | 47 |  |  |  |  | 
8 | 0.76 ± 0.09 | 78.8 ± 6.2 |  |  | C[C@@H]1COCCN1c1cc(CNC(=O)N2CCN(C(=O)c3cc(Cc4n[nH]c(=O)c5ccccc45)ccc3F)CC2)nc(-c2ccnc3[nH]ccc23)n1 [Compound B7, (R)‐4‐(2‐fluoro‐5‐((4‐oxo‐3,4‐dihydrophthalazin‐1‐yl)methyl)benzoyl)‐N‐((6‐(3‐methylmorpholino)‐2‐(1H‐pyrrolo[2,3‐b]pyridin‐4‐yl)pyrimidin‐4‐yl)methyl)piperazine‐1‐carboxamide] | 1600 ± 90 | 960 ± 40 | 1290 ± 560 |  |  |  |  |  |  | 
9 | 1.2 ± 0.3 | 36.7 ± 4.6 |  |  | C[C@@H]1COCCN1c1cc(CNC(=O)C2CCN(C(=O)c3cc(Cc4n[nH]c(=O)c5ccccc45)ccc3F)CC2)nc(-c2ccnc3[nH]ccc23)n1 [Compound B5, (R)‐1‐(2‐fluoro‐5‐((4‐oxo‐3,4‐dihydrophthalazin‐1‐yl)methyl)benzoyl)‐N‐((6‐(3‐methylmorpholino)‐2‐(1H‐pyrrolo[2,3‐b]pyridin‐4‐yl)pyrimidin‐4‐yl)methyl)piperidine‐4‐carboxamide] | 4480 ± 1080 | 1460 ± 100 | 1190 ± 230 |  |  |  |  |  |  | 
10 | 16 ± 2.4 | 168 ± 7.8 |  |  | C[C@@H]1COCCN1c1cc(CNC(=O)CNC(=O)c2cc(Cc3n[nH]c(=O)c4ccccc34)ccc2F)nc(-c2ccnc3[nH]ccc23)n1 [Compound B2, (R)‐2‐fluoro‐N‐(2‐(((6‐(3‐methylmorpholino)‐2‐(1H‐pyrrolo[2,3‐b]pyridin‐4‐yl)pyrimidin‐4‐yl)methyl)amino)‐2‐oxoethyl)‐5‐((4‐oxo‐3,4‐dihydrophthalazin‐1‐yl)methyl)benzamide] | 10580 ± 10 | 8410 ± 610 |  |  | 40.3 |  |  |  |  | 
11 | 0.46 ± 0.1 | 112 ± 5.3 |  |  | C[C@@H]1COCCN1c1cc(CNS(=O)(=O)C2CCN(C(=O)c3cc(Cc4n[nH]c(=O)c5ccccc45)ccc3F)CC2)nc(-c2ccnc3[nH]ccc23)n1 [Compound B6, (R)‐1‐(2‐fluoro‐5‐((4‐oxo‐3,4‐dihydrophthalazin‐1‐yl)methyl)benzoyl)‐N‐((6‐(3‐methylmorpholino)‐2‐(1H‐pyrrolo[2,3‐b]pyridin‐4‐yl)pyrimidin‐4‐yl)methyl)piperidine‐4‐sulfonamide] | 3960 ± 2050 | 700 ± 70 | 780 ± 80 |  |  |  |  |  |  | 
